Values quoted from earlier work in PMC11881343, “Safety of ilunocitinib tablets (Zenrelia™) after once daily oral administration in dogs” (BMC Veterinary Research, 2025).

Legend:
[1] = tested on: peripheral blood leukocytes; settings: rheumatoid arthritis patients in phase III clinical trials; cited from earlier work
[2] = tested on: human patients with rheumatoid arthritis; parameters: method as in PMID 31362993; settings: human medicine; cited from earlier work
JAK3 = tested on: JAK3; parameters: method as in PMID 32413585; settings: cited from earlier work
dogs = settings: cited from earlier work

SMILES | changes in lymphocytes subsets populations [1] | effect on hemoglobin [2] | potency against JAK3 (JAK3) | Weight gain in dogs (dogs; dogs) | Papillomas in dogs (dogs; resorbed spontaneously)
CCS(=O)(=O)N1CC(CC#N)(n2cc(-c3ncnc4[nH]ccc34)cn2)C1 [baricitinib] | minimal and reversible changes | initial decrease in hemoglobin within the normal range followed by a slight increase | significantly lower potency against JAK3 | – | –
CNS(=O)(=O)C[C@H]1CC[C@H](N(C)c2ncnc3[nH]ccc23)CC1 [oclacitinib] | – | – | – | Weight gain has been reported | Papillomas were also observed
CC[C@@H]1CN(C(=O)NCC(F)(F)F)C[C@@H]1c1cnc2cnc3[nH]ccc3n12 [upadacitinib] | – | limited impact on hemoglobin | – | – | –
